# Source: patent publication US5455222A, “1-substituted-5-thiomethylthiocyanato-1H-tetrazoles, compositions containing them and their use as antimicrobial and marine antifouling agents” (The Dow Chemical Company, priority 1994, dated 1995)
# Key:
# [1] = test system: Penicillium chrysogenum (Pc); experiment: Minimum inhibitory concentration (MIC), yeast/fungi in malt yeast agar; type: cell-based, Penicillium chrysogenum ATCC 9480; settings: 30° C., 72 hours for fungi
# Procedure: (§1) The minimum inhibitory concentration (MIC) for the compounds listed in Table I is determined for 9 bacteria, using nutrient agar, and 7 yeast and fungi, using malt yeast agar. A one percent solution of the test compound is prepared in a mixture of acetone and water.
# (§2) Malt yeast agar is prepared by adding 3 g yeast extract and 45 g malt agar per liter of deionized water. The specific agar is dispensed in 30 mL aliquots into 25×200 mm test tubes, capped and autoclaved for 15 minutes at 115° C.
# (§3) The test tubes containing the agar are cooled in a water bath until the temperature of the agar is 48° C. Then, an appropriate amount of the one percent solution of the test compound is added (except in the controls where no compound is added) to the respective test tubes so that the final concentrations are 500, 250, 100, 50, 25, 10, 5, 2.5, 1.0 and zero parts per million of the test compound in the agar, thus having a known concentration of test compound dispersed therein. The contents of the test tubes are then transferred to respective petri plates. After drying for 24 hours, the petri plates containing nutrient agar are inoculated with bacteria and those containing malt yeast agar are inoculated with yeast and fungi.
# (§4) The inoculation with the yeast and fungi is accomplished as follows. Cultures of yeast and fungi are incubated for seven days on malt yeast agar at 30° C. These cultures are used to prepare suspensions by the following procedure. A suspension of each organism is prepared by adding 10 mL of sterile saline and 10 microliters of octylphenoxy polyethoxy ethanol to the agar slant of yeast or fungi. The sterile saline/octylphenoxy polyethoxy ethanol solution is then agitated with a sterile swab to suspend the microorganism grown on the slant. Each resulting suspension is diluted into sterile saline (1 part suspension to 9 parts sterile saline). Aliquots of these dilutions are placed in individual wells of Steer's Replicator and petri plates inoculated as previously described. The petri plates are incubated at 30° C. and read after 48 hours for yeast and 72 hours for fungi.
# (§5) Table II lists the bacteria, yeast and fungi used in the MIC test described above along with their respective American Type Culture Collection (ATCC) identification numbers.
# (§6) In Tables III and IV, the MIC values of the compounds described in Table I as compared to the MIC of a standard commercial preservative (with 1-(3-chloroallyl)-3,5,7-triaza-1-azoniaadamantane chloride as the active agent and referred to in Tables III and IV as "STANDARD I") are set forth for the bacteria organisms and yeast/fungi organisms which are listed in Table II.
# Proteus vulgaris (Pv) = experiment: Minimum inhibitory concentration (MIC), bacteria in nutrient agar; type: cell-based, Proteus vulgaris ATCC 881; settings: 48 hours
# Procedure: as §1
# (§7) Nutrient agar is prepared at pH 6.8, representing a neutral medium, and at pH 8.2, representing an alkaline medium. The nutrient agars are prepared by adding 23 g of nutrient agar to one liter of deionized water. In addition, the alkaline medium is prepared by adjusting a 0.04M solution of N-[tris-(hydroxymethyl)methyl]glycine buffered deionized water with concentrated sodium hydroxide to a pH of 8.5.
# as §3
# (§8) The inoculation with bacteria is accomplished by using the following procedure. Twenty-four hour-cultures of each of the bacteria are prepared by incubating the respective bacteria in tubes containing nutrient broth for 24 hours at 30° C. in a shaker. Dilutions of each of the 24 hour-cultures are made so that nine separate suspensions (one for each of the nine test bacteria) are made, each containing 10^8 colony forming units (CFU) per mL of suspension of a particular bacteria. Aliquots of 0.3 mL of each of the bacterial suspensions are used to fill the individual wells of Steer's Replicator. For each microbial suspension, 0.3 mL was used to fill three wells (i.e., three wells of 0.3 mL each) so that for the nine different bacteria, 27 wells are filled. The Steer's Replicator is then used to inoculate both the neutral and alkaline pH nutrient agar petri plates.
# (§9) The inoculated petri plates are incubated at 30° C. for 48 hours and then read to determine if the test compound which is incorporated into the agar prevented growth of the respective bacteria.
# as §5, §6
# [2] = test system: Aureobasidium pullulan (Ap); experiment: Minimum inhibitory concentration (MIC), yeast/fungi in malt yeast agar; type: cell-based, Aureobasidium pullulan ATCC 16622; settings: 30° C., read after 48 hours for yeast and 72 hours for fungi
# Procedure: as §1, §2, §3, §4, §5, §6
# Bacillus subtilis (Bs) = experiment: Minimum inhibitory concentration (MIC), bacteria in nutrient agar; type: cell-based, Bacillus subtilis ATCC 8473; settings: 48 hours
# Procedure: as §1, §7, §3, §8, §9, §5, §6
# [3] = test system: Staphylococcus aureus (Sa); experiment: as above; type: cell-based, Staphylococcus aureus ATCC 6538; settings: 48 hours
# Procedure: as §1, §7, §3, §8, §9, §5, §6
# [4] = test system: Klebsiella pneumoniae (Kp); experiment: as above; type: cell-based, Klebsiella pneumoniae ATCC 8308; settings: 48 hours
# Procedure: as §1, §7, §3, §8, §9, §5, §6
# Aspergillus niger (An) = experiment: Minimum inhibitory concentration (MIC), yeast/fungi in malt yeast agar; type: cell-based, Aspergillus niger ATCC 16404; settings: 30° C., 72 hours for fungi
# Procedure: as §1, §2, §3, §4, §5, §6
# Fusarium oxysporum (Fo) = experiment: as above; type: cell-based, Fusarium oxysporum ATCC 48112; settings: 30° C., 72 hours for fungi
# Procedure: as §1, §2, §3, §4, §5, §6
# [5] = test system: Salmonella choleraesuis (Sc); experiment: Minimum inhibitory concentration (MIC), bacteria in nutrient agar; type: cell-based, Salmonella choleraesuis ATCC 10708; settings: Salmonella enterica, 48 hours
# Procedure: as §1, §7, §3, §8, §9, §5, §6
# Escherichia coli (Ec) = experiment: as above; type: cell-based, Escherichia coli ATCC 11229; settings: 48 hours
# Procedure: as §1, §7, §3, §8, §9, §5, §6
# [6] = test system: Pseudomonas aeruginosa (PRD-10); experiment: as above; type: cell-based, Pseudomonas aeruginosa ATCC 15442; settings: 48 hours
# Procedure: as §1, §7, §3, §8, §9, §5, §6
# [7] = test system: Enterobacter aerogenes (Ea); experiment: as above; type: cell-based, Enterobacter aerogenes ATCC 13048; settings: Klebsiella aerogenes, 48 hours
# Procedure: as §1, §7, §3, §8, §9, §5, §6
# [8] = test system: Saccharomyces cerevisiae (Sc); experiment: Minimum inhibitory concentration (MIC), yeast/fungi in malt yeast agar; type: cell-based, Saccharomyces cerevisiae ATCC 4105; settings: 30° C., 48 hours for yeast
# Procedure: as §1, §2, §3, §4, §5, §6
# Candida albicans (Ca) = experiment: as above; type: cell-based, Candida albicans ATCC 10231; settings: 30° C., 48 hours for yeast
# Procedure: as §1, §2, §3, §4, §5, §6
# Trichoderma viride (Tv) = experiment: as above; type: cell-based, Trichoderma viride ATCC 8678; settings: 30° C., 72 hours for fungi
# Procedure: as §1, §2, §3, §4, §5, §6
# [9] = test system: Pseudomonas aeruginosa (Pa); experiment: Minimum inhibitory concentration (MIC), bacteria in nutrient agar; type: cell-based, Pseudomonas aeruginosa ATCC 10145; settings: 48 hours
# Procedure: as §1, §7, §3, §8, §9, §5, §6
Compound,MIC [1],"MIC (Proteus vulgaris (Pv); nutrient agar pH 6.8, 30° C.)","MIC (Proteus vulgaris (Pv); nutrient agar pH 8.2, 30° C.)",MIC [2],"MIC (Bacillus subtilis (Bs); nutrient agar pH 6.8, 30° C.)","MIC (Bacillus subtilis (Bs); nutrient agar pH 8.2, 30° C.)","MIC ([3]; nutrient agar pH 6.8, 30° C.)","MIC ([3]; nutrient agar pH 8.2, 30° C.)","MIC ([4]; nutrient agar pH 6.8, 30° C.)","MIC ([4]; nutrient agar pH 8.2, 30° C.)",MIC (Aspergillus niger (An)),MIC (Fusarium oxysporum (Fo)),"MIC ([5]; nutrient agar pH 6.8, 30° C.)","MIC ([5]; nutrient agar pH 8.2, 30° C.)","MIC (Escherichia coli (Ec); nutrient agar pH 6.8, 30° C.)","MIC (Escherichia coli (Ec); nutrient agar pH 8.2, 30° C.)","MIC ([6]; nutrient agar pH 6.8, 30° C.)","MIC ([6]; nutrient agar pH 8.2, 30° C.)","MIC ([7]; nutrient agar pH 6.8, 30° C.)","MIC ([7]; nutrient agar pH 8.2, 30° C.)",further results
"CC(C)(C)c1ccc(-n2nnnc2SCSC#N)cc1 [IX, 1-(tertiary-Butylphenyl)-5-thiomethylthiocyanato-1H-tetrazole]",2.5 mg/L,250 mg/L,100 mg/L,2.5 mg/L,25 mg/L,50 mg/L,50 mg/L,50 mg/L,250 mg/L,100 mg/L,5 mg/L,25 mg/L,50 mg/L,100 mg/L,50 mg/L,250 mg/L,500 mg/L,500 mg/L,500 mg/L,500 mg/L,MIC [8]: 10 mg/L; MIC (Candida albicans (Ca)): 100 mg/L; MIC (Trichoderma viride (Tv)): 100 mg/L
"N#CSCSc1nnnn1-c1ccc(C#N)cc1 [XII, 1-(4-Cyanophenyl)-5-thiomethylthiocyanato-1H-tetrazole]",< 10 mg/L,100 mg/L,200 mg/L,< 10 mg/L,< 10 mg/L,40 mg/L,20 mg/L,100 mg/L,100 mg/L,100 mg/L,< 10 mg/L,20 mg/L,500 mg/L,400 mg/L,200 mg/L,400 mg/L,500 mg/L,400 mg/L,500 mg/L,> 400 mg/L,"MIC [8]: 40 mg/L; MIC ([9]; nutrient agar pH 8.2, 30° C.): 200 mg/L; MIC (Candida albicans (Ca)): 200 mg/L; MIC (Trichoderma viride (Tv)): 40 mg/L"
"N#CSCSc1nnnn1-c1ccc(F)cc1 [V, 1-(4-Fluorophenyl)-5-thiomethylthiocyanato-1H-tetrazole]",2.5 mg/L,50 mg/L,250 mg/L,2.5 mg/L,< 10 mg/L,50 mg/L,25 mg/L,50 mg/L,100 mg/L,250 mg/L,5 mg/L,5 mg/L,100 mg/L,250 mg/L,100 mg/L,500 mg/L,50 mg/L,100 mg/L,250 mg/L,500 mg/L,MIC [8]: 5 mg/L; MIC (Candida albicans (Ca)): 25 mg/L; MIC (Trichoderma viride (Tv)): 25 mg/L
"N#CSCSc1nnnn1-c1ccc([N+](=O)[O-])cc1 [XI, 1-(4-Nitrophenyl)-5-thiomethylthiocyanato-1H-tetrazole]",< 2.5 mg/L,< 100 mg/L,> 100 mg/L,10 mg/L,> 100 mg/L,> 100 mg/L,100 mg/L,50 mg/L,< 100 mg/L,> 100 mg/L,5 mg/L,25 mg/L,> 100 mg/L,> 100 mg/L,> 100 mg/L,> 100 mg/L,> 100 mg/L,> 100 mg/L,> 100 mg/L,> 100 mg/L,"MIC [8]: 10 mg/L; MIC ([9]; nutrient agar pH 6.8, 30° C.): > 100 mg/L; MIC ([9]; nutrient agar pH 8.2, 30° C.): > 100 mg/L; MIC (Candida albicans (Ca)): 100 mg/L; MIC (Trichoderma viride (Tv)): 25 mg/L"
"N#CSCSc1nnnn1-c1ccc(Br)cc1 [IV, 1-(4-Bromophenyl)-5-thiomethylthiocyanato-1H-tetrazole]",< 10 mg/L,500 mg/L,500 mg/L,< 10 mg/L,< 10 mg/L,25 mg/L,500 mg/L,500 mg/L,500 mg/L,500 mg/L,< 10 mg/L,< 10 mg/L,500 mg/L,500 mg/L,500 mg/L,500 mg/L,500 mg/L,500 mg/L,500 mg/L,500 mg/L,MIC [8]: < 10 mg/L; MIC (Candida albicans (Ca)): 25 mg/L; MIC (Trichoderma viride (Tv)): 25 mg/L
"COc1ccc(-n2nnnc2SCSC#N)cc1 [VIII, 1-(4-Methoxyphenyl)-5-thiomethylthiocyanato-1 H-tetrazole]",< 10 mg/L,250 mg/L,500 mg/L,< 10 mg/L,< 10 mg/L,25 mg/L,25 mg/L,100 mg/L,250 mg/L,100 mg/L,< 10 mg/L,< 10 mg/L,250 mg/L,500 mg/L,100 mg/L,500 mg/L,100 mg/L,500 mg/L,250 mg/L,500 mg/L,"MIC [8]: < 10 mg/L; MIC ([9]; nutrient agar pH 8.2, 30° C.): 100 mg/L; MIC (Candida albicans (Ca)): 25 mg/L; MIC (Trichoderma viride (Tv)): 25 mg/L"
"Cc1ccc(-n2nnnc2SCSC#N)cc1 [VII, 1-(4-Methylphenyl)-5-thiomethylthiocyanato-1H-tetrazole]",< 1 mg/L,100 mg/L,250 mg/L,< 1 mg/L,< 10 mg/L,< 10 mg/L,25 mg/L,50 mg/L,250 mg/L,100 mg/L,2.5 mg/L,5 mg/L,> 500 mg/L,> 500 mg/L,500 mg/L,500 mg/L,500 mg/L,250 mg/L,> 500 mg/L,> 500 mg/L,MIC [8]: < 1 mg/L; MIC (Candida albicans (Ca)): 10 mg/L; MIC (Trichoderma viride (Tv)): 10 mg/L
